The text below walks through data of patent publication US11827624B2, “Covalent immune recruiter compounds for immune cell recognition and associated uses” (McMaster University, priority 2020, dated 2023).

For this assay, the system named is monoclonal human anti-DNP antibody (mAb). Description: BLI covalent labeling kinetics assay on IgG Fc capture probes, mAb. The assay is classed as binding. The method, then:
Kinetic assays to characterize the second order rate constant (kinact/KI) describing the CIR+Ab labeling reaction involved incubating increasing concentrations of CIR 3 or CIR 5 with a fixed concentration (75 nM) of anti-DNP mmAb in solution, for different periods of time. PSMA binding to CIR-Ab complexes increases the total mass associated with the probe surface leading to signal increases (nm shift). CIR 3 (500 nM) and 75 nM of either mmAb or mAb (AcroBiosystems Catalog #DNP-M2) was reacted in 1× Kinetics Buffer (ForteBio) for four hours prior to the experiment. IgG Fc capture (ProG) probes from ForteBio were placed in 1× Kinetics Buffer for 20 minutes prior to the experiment for wetting. The experiment was conducted using an Octet Red96 (ForteBio), where the acquisition rate was set to 5 Hz and the temperature was held at 25° C. The plate shaker setting was 1000 RPM. A volume of 250 μL of each solution was loaded onto a black flat-bottom 96-well plate (Grenier). The experiment began by placing the ProG probes in 1×Kinetics Buffer for four minutes to establish a baseline. Next, the probes were placed into the CIR 3 and anti-DNP antibody reaction mixture to load the covalent complex (CIR-Ab) onto the probe. Next, the probes were placed in a solution of 5 mM DNP-glycine competitor in 1×Kinetics Buffer in order to disrupt any non-covalent or non-specific binding. The baseline was re-established by then placing the probes in 1× Kinetics Buffer for 0.5 minutes. To measure PSMA association, the probes were placed in a solution of 500 nM human PSMA protein in 1× Kinetics Buffer for 10 minutes. The probes were then placed in 1×Kinetics Buffer for 10 minutes to measure dissociation. The raw nm shift signal for the association and dissociation step obtained by the Octet Red96 was first baselined to the beginning of the association step (t=0 second) by subtracting the association signal at t=0 from the measured signal at each time point. The Kd was determined by fitting both the association and dissociation curves using the ‘association then dissociation’ binding model in GraphPad Prism 8. The experiment was repeated once for a total of two replicates.
The specific labelling of an antibody by a CIR occurs via a two-step mechanism. In the first step, the CIR binds to the antibody via its ABD and forms a reversible complex. […] This second order rate constant was determined by monitoring covalent product (CIR-Ab) formation as a function of time via BLI using IgG Fc capture probes (note: a non-specific labeling reaction occurs independent of binding to the DNP binding site with any biological nucleophile and follows second order kinetics without saturation). […]

Regarding `O=C(O)CC[C@H](NC(=O)N[C@@H](CCCCNC(=O)NCCOCCOCCOCCOCCOCCOCCOCCOC(=O)n1cnc(CCNC(=O)CNc2ccc([N+](=O)[O-])cc2[N+](=O)[O-])c1)C(=O)O)C(=O)O` [CIR 3], the “covalent labeling of anti-DNP mAb” value (75 nM mAb, 500 nM CIR 3) is “selectively covalently modify mAb albeit with modestly slower kinetics”. For the same compound, the “Kinact/Kl ^c” value (mAb) worked out at 1730 ± 1040 M⁻¹ s⁻¹. Besides, the “Kinact^c” value (mAb, 75 nM antibody) was 2.0 × 10^−4 ± 0 s^−1. The Ki (mAb, read-out: Kl ^c) came to 160 ± 70 nM.
